# In ChEMBL document CHEMBL3885861, “Open TG-GATES”:
# Organism: Rattus norvegicus
# Test: Open TG-GATES - Regimen: Single
# Assay type: toxicity, organism-based, Sprague-Dawley
# Set-up: regimen Single, gender Male, age 6 weeks
# Details: in vivo, po, 0 mg/kg, route gavage, dose level Control; for APTT / Bas / Eos / Fbg / Hb / Ht / Lym / MCH / MCHC / MCV / Mono / Neu / PT / Plat / RBC / Ret / WBC: tissue Blood; for KIDNEY_L / KIDNEY_R / KIDNEY_TOTAL: tissue Kidney; for LIVER: tissue Liver; for A/G / ALP / ALT / AST / BUN / CRE / Ca / Cl / DBIL / GLC / IP / K / LDH / Na / PL / RALB / TBIL / TC / TG / TP / gamma-GTP: tissue Plasma
smiles,measurement,setting,value
Cc1nnc2n1-c1ccc(Cl)cc1C(c1ccccc1Cl)=NC2 [TRIAZOLAM],TERMINAL_BW,3 h,194.1 g
same,APTT,3 h,20.7 s
same,Bas,3 h,0%
same,Eos,3 h,0.8%
same,Fbg,3 h,266.4 mg/dL
same,Hb,3 h,13.6 g/dL
same,Ht,3 h,41.4%
same,Lym,3 h,76%
same,MCH,3 h,21.2 pg
same,MCHC,3 h,32.8%
same,MCV,3 h,64.7 fL
same,Mono,3 h,3%
same,Neu,3 h,19.2%
same,PT,3 h,13.6 s
same,Plat,3 h,126 x10_4/uL
same,RBC,3 h,640.6 x10_4/ul
same,Ret,3 h,9.3%
same,WBC,3 h,96.6 x10_2/uL
same,KIDNEY_L,3 h,0.8 g
same,KIDNEY_R,3 h,0.8 g
same,KIDNEY_TOTAL,3 h,1.6 g
same,LIVER,3 h,8.3 g
same,A/G,3 h,0.9
same,ALP,3 h,1477.8 IU/L
same,ALT,3 h,39.8 IU/L
same,AST,3 h,72.4 IU/L
same,BUN,3 h,10.6 mg/dL
same,CRE,3 h,0.2 mg/dL
same,Ca,3 h,11.3 mg/dL
same,Cl,3 h,105.6 meq/L
same,DBIL,3 h,0.012 mg/dL
same,GLC,3 h,179.2 mg/dL
same,IP,3 h,9.1 mg/dL
same,K,3 h,4.3 meq/L
same,LDH,3 h,100 IU/L
same,Na,3 h,140.8 meq/L
same,PL,3 h,150.2 mg/dL
same,RALB,3 h,2.5 g/dL
same,TBIL,3 h,0.062 mg/dL
same,TC,3 h,87.8 mg/dL
same,TG,3 h,47.6 mg/dL
same,TP,3 h,5.2 g/dL
same,gamma-GTP,3 h,1.2 IU/L
same,TERMINAL_BW,6 h,191.8 g
same,APTT,6 h,17.3 s
same,Bas,6 h,0%
same,Eos,6 h,0.8%
same,Fbg,6 h,258.8 mg/dL
same,Hb,6 h,13.6 g/dL
same,Ht,6 h,41.3%
same,Lym,6 h,81.4%
same,MCH,6 h,21.3 pg
same,MCHC,6 h,33%
same,MCV,6 h,64.7 fL
same,Mono,6 h,2.2%
same,Neu,6 h,15%
same,PT,6 h,13.5 s
same,Plat,6 h,133.4 x10_4/uL
same,RBC,6 h,639.4 x10_4/ul
same,Ret,6 h,8.5%
same,WBC,6 h,82 x10_2/uL
same,KIDNEY_L,6 h,0.9 g
same,KIDNEY_R,6 h,0.9 g
same,KIDNEY_TOTAL,6 h,1.7 g
same,LIVER,6 h,7.7 g
same,A/G,6 h,0.9
same,ALP,6 h,1476.8 IU/L
same,ALT,6 h,33.6 IU/L
same,AST,6 h,72 IU/L
same,BUN,6 h,7.8 mg/dL
same,CRE,6 h,0.2 mg/dL
same,Ca,6 h,10.7 mg/dL
same,Cl,6 h,106.8 meq/L
same,DBIL,6 h,0.01 mg/dL
same,GLC,6 h,177.8 mg/dL
same,IP,6 h,9.4 mg/dL
same,K,6 h,4.1 meq/L
same,LDH,6 h,104.2 IU/L
same,Na,6 h,141.8 meq/L
same,PL,6 h,138 mg/dL
same,RALB,6 h,2.5 g/dL
same,TBIL,6 h,0.068 mg/dL
same,TC,6 h,75.4 mg/dL
same,TG,6 h,51.6 mg/dL
same,TP,6 h,5.1 g/dL
same,gamma-GTP,6 h,1 IU/L
same,TERMINAL_BW,9 h,192.1 g
same,APTT,9 h,17.5 s
same,Bas,9 h,0%
same,Eos,9 h,0.6%
same,Fbg,9 h,271.8 mg/dL
same,Hb,9 h,13.2 g/dL
same,Ht,9 h,40.4%
same,Lym,9 h,77.4%
same,MCH,9 h,20.9 pg
same,MCHC,9 h,32.7%
same,MCV,9 h,64 fL
same,Mono,9 h,2%
same,Neu,9 h,19.4%
same,PT,9 h,13.7 s
same,Plat,9 h,112 x10_4/uL
same,RBC,9 h,631.8 x10_4/ul
same,Ret,9 h,8.8%
same,WBC,9 h,96.7 x10_2/uL
same,KIDNEY_L,9 h,0.9 g
same,KIDNEY_R,9 h,0.9 g
same,KIDNEY_TOTAL,9 h,1.7 g
same,LIVER,9 h,7.6 g
same,A/G,9 h,0.9
same,ALP,9 h,1320.2 IU/L
same,ALT,9 h,40.6 IU/L
same,AST,9 h,75 IU/L
same,BUN,9 h,9.2 mg/dL
same,CRE,9 h,0.2 mg/dL
same,Ca,9 h,10.6 mg/dL
same,Cl,9 h,106 meq/L
same,DBIL,9 h,0.008 mg/dL
same,GLC,9 h,188.4 mg/dL
same,IP,9 h,10.4 mg/dL
same,K,9 h,4.1 meq/L
same,LDH,9 h,79.8 IU/L
same,Na,9 h,141.6 meq/L
same,PL,9 h,132.4 mg/dL
same,RALB,9 h,2.4 g/dL
same,TBIL,9 h,0.062 mg/dL
same,TC,9 h,71.8 mg/dL
same,TG,9 h,40.8 mg/dL
same,TP,9 h,5.1 g/dL
same,gamma-GTP,9 h,1.2 IU/L
same,TERMINAL_BW,24 h,207 g
same,APTT,24 h,20.6 s
same,Bas,24 h,0%
same,Eos,24 h,1%
same,Fbg,24 h,279.8 mg/dL
same,Hb,24 h,13.2 g/dL
same,Ht,24 h,40.3%
same,Lym,24 h,78%
same,MCH,24 h,21.1 pg
same,MCHC,24 h,32.9%
same,MCV,24 h,64.1 fL
same,Mono,24 h,3%
same,Neu,24 h,16.6%
same,PT,24 h,13.1 s
same,Plat,24 h,116.7 x10_4/uL
same,RBC,24 h,628.2 x10_4/ul
same,Ret,24 h,8.3%
same,WBC,24 h,87 x10_2/uL
same,KIDNEY_L,24 h,0.9 g
same,KIDNEY_R,24 h,0.9 g
same,KIDNEY_TOTAL,24 h,1.8 g
same,LIVER,24 h,9.5 g
same,A/G,24 h,0.9
same,ALP,24 h,1736 IU/L
same,ALT,24 h,50 IU/L
same,AST,24 h,79.4 IU/L
same,BUN,24 h,13.6 mg/dL
same,CRE,24 h,0.2 mg/dL
same,Ca,24 h,11 mg/dL
same,Cl,24 h,105.2 meq/L
same,DBIL,24 h,0.01 mg/dL
same,GLC,24 h,178.4 mg/dL
same,IP,24 h,8.3 mg/dL
same,K,24 h,4.2 meq/L
same,LDH,24 h,109.8 IU/L
same,Na,24 h,141.2 meq/L
same,PL,24 h,145.8 mg/dL
same,RALB,24 h,2.5 g/dL
same,TBIL,24 h,0.054 mg/dL
same,TC,24 h,77.4 mg/dL
same,TG,24 h,80.8 mg/dL
same,TP,24 h,5.3 g/dL
same,gamma-GTP,24 h,1 IU/L
